Read-outs that look alike come from different tables or passages of the source.

Consider 28 compounds from patent US20100210649A1, “PYRIDAZINONES AND FURAN-CONTAINING COMPOUNDS” (Sloan-Kettering Institute for Cancer Research, priority 2006, published 2010).

What all share (assay type): cell-based, human
In one experiment the test system is H1650. The experiment is described as follows: Non Small Cell Lung Cancer proliferation assay (Alamar Blue reduction), H1650. As to conditions: Homo sapiens, NCI-H1650, primary screening, 10 μM compound in 1% DMSO (v/v). As to the method: (§1) These cells have a doubling time of 1-2 days. All cell types are adherent and grow in colonies. The cells should be kept at a density between 50,000 cells/mL -500,000 cells/mL to provide for optimum growth and adequate nutrition. The cell line should be maintained at 37° C. in a humidified atmosphere with 5% CO2 in a sterile cell culture incubator.
(§2) Non Small Cell Lung Cancer Proliferation Assay.
(§3) High Controls for this assay are made by treating Non Small Cell Lung Cancer cells with 5 ul of 10% DMSO. [Final concentration in this assay is 1% DMSO].
(§4) Important Note: All compounds for testing in this assay should be done at the final concentration of 1% DMSO.
(§5) After addition, the cells are placed in cell culture incubator at 37° C. for 48 hours for complete treatment.
(§6) After drug treatment, cytotoxicity is measured by Alamar Blue reduction.
(§7) The cells are incubated for 48 hours at 37° C. to complete the Alamar Blue reduction.
(§8) The final step in the assay is to measure the amount of Alamar Blue reduction. […] The Alamar Blue fluorescence is measured at an excitation of 530 nm and emission of 590 nm.
(§9) For the NSCLC project, the cell based assay was screened against a small molecule library of approximately 200,000 compounds. The compound library is stored in our automated robotic freezer (Biophile) at −20° C. in 100% DMSO. Compound freeze and thaw cycles are kept to a minimum. […] This assay was performed on a fully automated linear track robotic platform (CRS F3 Robot System, Thermo Electron Corp., Ontario, Canada) utilizing several integrated peripherals for plate handling, liquid dispensing, and readout detection. […] The microplates are then placed at 37° C. for 48 hours to complete treatment of cells with compounds. Next, 5 ul of alamar blue was added using a liquid dispenser (Flexprop Precision Dispenser, Perkin Elmer, Mass., USA) and incubated for 48 hours at 37° C. The alamar blue prompt fluorescence was measured on Victor V (Victor^3 V, Perkin Elmer, Mass., USA) and output data files were loaded into ORIS (Oncology Research Informatics System, MSKCC, NY, USA), a screening data acquisition and analysis platform.
(§10) The dose response studies were done with the following standard procedure. First, the cells were counted and dispensed at 250 cells/well into 384-well microplates with compound. The cells were incubated for 48 hours at 37 C to complete treatment, and then alamar blue was added for an additional 48 hours. Finally, alamar blue reduction was measured and the data was loaded into ORIS, our data screening acquisition platform.
Background: Alamar Blue is a resazurin reagent that responds to reducing activity.

The subject of another experiment is H3255. In words: Non Small Cell Lung Cancer proliferation assay (Alamar Blue reduction), H3255. Conditions: Homo sapiens, NCI-H3255, primary screening, 10 μM compound in 1% DMSO (v/v). The protocol: as §1, §2, §3, §4, §5, §6, §7, §8, §9, §10
For another experiment, the system named is H2030. The experiment is described as follows: Non Small Cell Lung Cancer proliferation assay (Alamar Blue reduction), H2030. As to conditions: Homo sapiens, NCI-H2030, primary screening, 10 μM compound in 1% DMSO (v/v). As to the method:
as §1, §2, §3, §4, §5, §6, §7, §8, §9, §10

For another experiment, the system named is H1975. The experiment is described as follows: Non Small Cell Lung Cancer proliferation assay (Alamar Blue reduction), H1975. Conditions: Homo sapiens, NCI-H1975, primary screening, 10 μM compound in 1% DMSO (v/v). The protocol: as §1, §2, §3, §4, §5, §6, §7, §8, §9, §10
The mark [1] stands for this setting: read-out: percentage inhibition H1650.
Setting [2] is: read-out: percentage inhibition H3255.
Where [3] appears, read: read-out: percentage inhibition H2030.
[4] abbreviates: read-out: percentage inhibition H1975.
Setting [5] is: H1650, read-out: PRIMARY HTS [%] H1650 (percentage inhibition).
Where [6] appears, read: H3255, read-out: PRIMARY HTS [%] H3255 (percentage inhibition).
The mark [7] stands for this setting: H2030, read-out: PRIMARY HTS [%] H2030 (percentage inhibition).
[8] abbreviates: H1975, read-out: PRIMARY HTS [%] H1975 (percentage inhibition).

With `COc1cnn(-c2ccc([N+](=O)[O-])cc2)c(=O)c1Cl` [compound 104339], the inhibition at 10 µM with H1650 (setting [1]) is -21%; with H3255 (setting [2]), 3%; with H2030 (setting [3]), -3%; in the experiment with H1975 (setting [4]), -9%.
With `O=C(Nc1ccc(NC(=O)c2ccc(Cl)cc2Cl)cc1)c1cc2ccccc2o1` [compound 109007], the inhibition at 10 µM was -6% in the experiment with H1650 (setting [5]), 1% in the experiment on H3255 (setting [6]), 3% in the experiment on H2030 (setting [7]) and -3% in the experiment with H1975 (setting [8]).
With `Cc1cc(N(C)C)c(=O)n(-c2ccccc2)n1` [compound 189015], the inhibition at 10 µM in the experiment on H1650 (setting [1]) is 21%; with H3255 (setting [2]), 32%; with H2030 (setting [3]), -4%; with H1975 (setting [4]) it was 29%.
As for `O=C(Nc1ccccc1C(=O)NCc1ccc(Cl)cc1)c1ccco1` [compound 88935], the inhibition at 10 µM with H1650 (setting [5]) was -4%; in the experiment on H3255 (setting [6]), -2%; with H2030 (setting [7]), -1%; in the experiment with H1975 (setting [8]) it was -10%.
On to `O=c1c(SCc2ccc(Cl)cc2)c(SCc2ccccc2)cnn1-c1ccccc1` [compound 208704], for which the inhibition at 10 µM in the experiment on H1650 (setting [1]) is -10%; with H3255 (setting [2]), -23%; with H2030 (setting [3]), -15%; in the experiment on H1975 (setting [4]), -6%.
As to `Cc1cc([N+](=O)[O-])ccc1NC(=O)c1ccco1` [compound 79434], the inhibition at 10 µM with H1650 (setting [5]) is 4%; in the experiment with H3255 (setting [6]), 4%; in the experiment with H2030 (setting [7]), 0%; with H1975 (setting [8]), -7%.
As for `O=C(Nc1c(Cl)cccc1Cl)c1cc2ccccc2o1` [compound 60998], the inhibition at 10 µM in the experiment with H1650 (setting [5]) was determined as 10%; in the experiment with H3255 (setting [6]), 1%; with H2030 (setting [7]) it was 1%; with H1975 (setting [8]) it was 19%.
For the compound `O=c1c(SCc2ccccc2)cc(Cl)nn1-c1ccccc1` [compound 208702], the inhibition at 10 µM is 3% in the experiment with H1650 (setting [1]), 0% in the experiment with H3255 (setting [2]), -15% in the experiment with H2030 (setting [3]) and -16% in the experiment with H1975 (setting [4]).
Consider `O=c1c(SCc2ccccc2)c(SCc2ccccc2)cnn1-c1ccc(Br)cc1` [compound 208699], for which the inhibition at 10 µM was -12% in the experiment on H1650 (setting [1]), 19% in the experiment on H3255 (setting [2]), 10% in the experiment on H2030 (setting [3]) and -22% in the experiment on H1975 (setting [4]).
With `O=C(Nc1ccc(-c2ccc([N+](=O)[O-])cc2)cc1)c1ccco1` [compound 102031], the inhibition at 10 µM in the experiment with H1650 (setting [5]) is -2%; in the experiment on H3255 (setting [6]), 3%; with H2030 (setting [7]), -1%; in the experiment with H1975 (setting [8]), -11%.
For `Cc1cc(-n2ccc3c(C#N)c(=O)n(-c4ccccc4)nc3c2=O)[nH]n1` [compound 216994], the inhibition at 10 µM in the experiment on H1650 (setting [1]) was 1%; with H3255 (setting [2]), -3%; in the experiment with H2030 (setting [3]), 4%; in the experiment with H1975 (setting [4]), 1%.
`N=c1c(-c2nc3ccccc3[nH]2)cc(C(=O)c2ccco2)nn1-c1ccccc1` [compound 181801]: the inhibition at 10 µM was 13% in the experiment on H1650 (setting [1]), 7% in the experiment on H3255 (setting [2]), -7% with H2030 (setting [3]) and 24% with H1975 (setting [4]).
On to `O=c1c(Br)c(-n2cc(CO)nn2)cnn1-c1ccccc1` [compound 224256], for which the inhibition at 10 µM came out at 103% in the experiment with H1650 (setting [1]), 110% in the experiment on H3255 (setting [2]), 1% in the experiment with H2030 (setting [3]) and 102% in the experiment on H1975 (setting [4]).
For `CN1CCN(c2cnn(-c3ccc(Cl)cc3)c(=O)c2Cl)CC1` [compound 194618] the same measures were -15%, -48%, -6% and -3%.
In the case of `CSc1cnn(-c2ccccc2)c(=O)c1SC` [compound 104423], the inhibition at 10 µM with H1650 (setting [1]) was -11%; in the experiment on H3255 (setting [2]), 1%; in the experiment on H2030 (setting [3]), -3%; in the experiment on H1975 (setting [4]), -20%.
As to `O=c1c(SCc2ccccc2)c(SCc2ccccc2)cnn1-c1ccccc1` [compound 208693], the inhibition at 10 µM in the experiment on H1650 (setting [1]) was -6%; with H3255 (setting [2]) it was 0%; in the experiment on H2030 (setting [3]), -11%; in the experiment on H1975 (setting [4]), -7%.
As to `O=C(Nc1ccc(NC(=O)c2ccco2)cc1)c1ccc(-c2ccccc2)cc1` [compound 76739], the inhibition at 10 µM in the experiment with H1650 (setting [5]) was 13%; with H3255 (setting [6]) it was 5%; with H2030 (setting [7]) it was 3%; in the experiment on H1975 (setting [8]), -9%.
With `Cc1ccccc1-n1ncc(SCc2ccccc2)c(Cl)c1=O` [compound 224765], the inhibition at 10 µM with H1650 (setting [1]) is 7%; in the experiment on H3255 (setting [2]) it was -12%; in the experiment with H2030 (setting [3]), -15%; in the experiment with H1975 (setting [4]), 1%.
As for `CC(C)Oc1c(S)cnn(-c2ccccc2)c1=O` [compound 213495], the inhibition at 10 µM was 4% in the experiment with H1650 (setting [1]), 8% in the experiment on H3255 (setting [2]), -5% in the experiment on H2030 (setting [3]) and -15% with H1975 (setting [4]).
Regarding `O=c1ccc(Oc2nc(N3CCCCC3)nc(N3CCCCC3)n2)nn1-c1ccccc1` [compound 196618], the inhibition at 10 µM in the experiment with H1650 (setting [1]) was 3%; in the experiment with H3255 (setting [2]), -33%; with H2030 (setting [3]) it was 12%; in the experiment with H1975 (setting [4]) it was -14%.
For the compound `O=c1ccc(Cl)nn1-c1cccc(Br)c1` [compound 178393], the inhibition at 10 µM is 8% in the experiment on H1650 (setting [1]), -4% with H3255 (setting [2]), -11% in the experiment on H2030 (setting [3]) and 3% in the experiment on H1975 (setting [4]).
On to `O=C(COCCOc1cnn(-c2ccccc2)c(=O)c1Cl)c1ccccc1` [compound 199760], for which the inhibition at 10 µM in the experiment on H1650 (setting [1]) was 12%; in the experiment with H3255 (setting [2]), 6%; in the experiment with H2030 (setting [3]), 21%; in the experiment with H1975 (setting [4]) it was -22%.
Turning to `O=[N+]([O-])c1ccc(CN2CCN(c3ccccc3)CC2)o1` [compound 100483], the inhibition at 10 µM with H1650 (setting [5]) is -1%; in the experiment on H3255 (setting [6]), 1%; in the experiment on H2030 (setting [7]), -1%; in the experiment with H1975 (setting [8]) it was -8%.
Regarding `O=c1c(SCc2ccco2)c(SCc2ccco2)cnn1-c1ccccc1` [compound 195071], the inhibition at 10 µM in the experiment with H1650 (setting [1]) amounted to 71%; in the experiment with H3255 (setting [2]), 82%; with H2030 (setting [3]) it was 9%; in the experiment on H1975 (setting [4]) it was 77%.
On the same counts, the results for `O=c1c(Cl)c(Cl)c(Cl)nn1-c1ccc(Br)cc1` [compound 202245] are 48%, 71%, -8% and 96%.
Take `O=c1c(N2CCCC2)c(Cl)cnn1-c1ccccc1` [compound 104304]: the inhibition at 10 µM stood at 52% in the experiment with H1650 (setting [1]), 107% in the experiment with H3255 (setting [2]), 14% with H2030 (setting [3]) and 98% with H1975 (setting [4]).
For `COc1cnn(-c2ccccc2)c(=O)c1SCc1ccc(Cl)cc1Cl` [compound 208701] the same measures were -4%, 7%, 7% and -25%.
Take `COc1ccc(-n2nc(C(=O)c3ccco3)cc(-c3nc4ccccc4[nH]3)c2=N)cc1` [compound 182721]: the inhibition at 10 µM was determined as 8% in the experiment on H1650 (setting [1]), 4% in the experiment on H3255 (setting [2]), 11% in the experiment on H2030 (setting [3]) and 9% in the experiment on H1975 (setting [4]).

What is called inhibition is the relative decrease from the control value, in per cent.
